This note sets out measurements from patent US10660877B2 (BRISTOL-MYERS SQUIBB COMPANY, priority 2016, dated 2020).

Structures are written as SMILES. Read-outs that look alike come from different tables or passages of the source. A value given as a limit tells only on which side of the number the result lay.

In one assay the target is human TLR9 (Homo sapiens (Human), UniProt Q9NR96). Briefly: TLR9 inhibition reporter assay (HEK-Blue cells, SEAP reporter, ODN2006 stimulation).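 Further: compounds tested over 0.05 nM to 50 µM, 22 h incubation, inhibition taken as SEAP signal drop from agonist plus DMSO wells toward a known inhibitor control.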 For orientation: In a reporter assay the amount or activity of a reporter protein is the signal.
Another assay has as its target human TLR7 (Homo sapiens (Human), UniProt Q9NYK1). Description: TLR7 inhibition reporter assay (HEK-Blue cells, SEAP reporter, gardiquimod stimulation). Format: cell-based.
Another assay concerns the target human TLR8 (Homo sapiens (Human), UniProt Q9NR97). Description: TLR8 inhibition reporter assay (HEK-Blue cells, SEAP reporter, R848 stimulation).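 Further: compounds tested from 0.05 nM to 50 µM, 22 h at 37 °C, SEAP measured with HEK-Blue Detection, inhibition relative to agonist plus DMSO versus a known inhibitor.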
[1] abbreviates: read-out: TLR9 IC50, HEK-Blue cells overexpressing human TLR9, ODN2006 5 nM.
Where [2] appears, read: HEK-Blue cells overexpressing human TLR7, gardiquimod 7.5 μM.
Where [3] appears, read: read-out: TLR8 IC50, HEK-Blue cells overexpressing human TLR8, R848 15.9 μM.
Where [4] appears, read: read-out: TLR9 IC50, HEK-Blue cells, ODN2006 5 nM.
Where [5] appears, read: HEK-Blue cells, gardiquimod 7.5 μM.
Setting [6] is: read-out: TLR8 IC50, HEK-Blue cells, R848 15.9 μM.

Sequence of human TLR8 (Q9NR97 27-1041): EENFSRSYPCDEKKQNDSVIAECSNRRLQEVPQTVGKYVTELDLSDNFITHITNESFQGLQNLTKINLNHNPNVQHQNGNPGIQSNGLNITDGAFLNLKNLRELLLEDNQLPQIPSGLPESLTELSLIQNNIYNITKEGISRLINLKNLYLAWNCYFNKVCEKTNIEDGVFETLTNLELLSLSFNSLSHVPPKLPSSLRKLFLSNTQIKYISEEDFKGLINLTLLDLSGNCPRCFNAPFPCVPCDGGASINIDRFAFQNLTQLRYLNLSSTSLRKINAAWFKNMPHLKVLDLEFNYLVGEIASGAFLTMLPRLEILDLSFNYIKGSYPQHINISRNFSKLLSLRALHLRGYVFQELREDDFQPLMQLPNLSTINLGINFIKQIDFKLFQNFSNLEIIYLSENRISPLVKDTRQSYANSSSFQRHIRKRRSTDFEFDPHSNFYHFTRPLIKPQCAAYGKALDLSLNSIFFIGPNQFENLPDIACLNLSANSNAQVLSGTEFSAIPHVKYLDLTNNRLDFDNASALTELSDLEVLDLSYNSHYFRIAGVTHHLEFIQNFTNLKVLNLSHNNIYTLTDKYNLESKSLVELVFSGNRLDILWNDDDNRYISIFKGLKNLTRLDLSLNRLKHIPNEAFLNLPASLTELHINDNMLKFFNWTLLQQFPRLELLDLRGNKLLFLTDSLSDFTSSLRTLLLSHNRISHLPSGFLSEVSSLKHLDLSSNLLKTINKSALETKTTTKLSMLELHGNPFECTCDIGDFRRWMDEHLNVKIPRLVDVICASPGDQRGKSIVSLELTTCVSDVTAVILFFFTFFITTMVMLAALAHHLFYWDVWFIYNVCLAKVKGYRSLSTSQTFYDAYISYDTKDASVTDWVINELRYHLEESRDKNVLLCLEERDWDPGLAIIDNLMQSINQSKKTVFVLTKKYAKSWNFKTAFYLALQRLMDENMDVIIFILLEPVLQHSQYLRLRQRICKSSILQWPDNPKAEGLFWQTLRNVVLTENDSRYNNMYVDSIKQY
Sequence of human TLR9 (Q9NR96 26-1032): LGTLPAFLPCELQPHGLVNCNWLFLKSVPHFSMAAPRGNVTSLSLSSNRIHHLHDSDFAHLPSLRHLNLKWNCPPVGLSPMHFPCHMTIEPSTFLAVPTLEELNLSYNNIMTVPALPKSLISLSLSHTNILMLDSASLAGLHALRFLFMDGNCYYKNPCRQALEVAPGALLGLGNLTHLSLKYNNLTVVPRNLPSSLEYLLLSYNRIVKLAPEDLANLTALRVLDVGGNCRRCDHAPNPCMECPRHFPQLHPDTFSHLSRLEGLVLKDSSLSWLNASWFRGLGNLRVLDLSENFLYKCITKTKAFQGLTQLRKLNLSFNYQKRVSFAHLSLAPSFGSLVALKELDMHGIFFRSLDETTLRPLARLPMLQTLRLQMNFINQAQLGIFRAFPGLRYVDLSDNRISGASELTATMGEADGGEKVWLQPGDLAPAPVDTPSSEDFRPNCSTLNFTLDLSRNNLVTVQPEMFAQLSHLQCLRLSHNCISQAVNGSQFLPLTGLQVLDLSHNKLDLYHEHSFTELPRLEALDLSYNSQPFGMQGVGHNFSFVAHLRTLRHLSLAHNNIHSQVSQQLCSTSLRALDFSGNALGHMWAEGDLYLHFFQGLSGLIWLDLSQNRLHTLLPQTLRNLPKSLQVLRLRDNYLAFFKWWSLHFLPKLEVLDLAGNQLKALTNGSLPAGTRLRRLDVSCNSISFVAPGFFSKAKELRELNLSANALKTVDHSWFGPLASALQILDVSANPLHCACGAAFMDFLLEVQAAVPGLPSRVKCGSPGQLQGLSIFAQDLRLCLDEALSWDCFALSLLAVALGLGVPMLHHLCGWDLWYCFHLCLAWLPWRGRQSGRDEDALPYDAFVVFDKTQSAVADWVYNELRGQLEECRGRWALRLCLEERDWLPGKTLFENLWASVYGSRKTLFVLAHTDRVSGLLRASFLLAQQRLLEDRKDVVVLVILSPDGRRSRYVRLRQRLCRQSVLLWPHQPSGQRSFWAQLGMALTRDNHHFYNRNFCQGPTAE
Sequence of human TLR7 (Q9NYK1 27-1049): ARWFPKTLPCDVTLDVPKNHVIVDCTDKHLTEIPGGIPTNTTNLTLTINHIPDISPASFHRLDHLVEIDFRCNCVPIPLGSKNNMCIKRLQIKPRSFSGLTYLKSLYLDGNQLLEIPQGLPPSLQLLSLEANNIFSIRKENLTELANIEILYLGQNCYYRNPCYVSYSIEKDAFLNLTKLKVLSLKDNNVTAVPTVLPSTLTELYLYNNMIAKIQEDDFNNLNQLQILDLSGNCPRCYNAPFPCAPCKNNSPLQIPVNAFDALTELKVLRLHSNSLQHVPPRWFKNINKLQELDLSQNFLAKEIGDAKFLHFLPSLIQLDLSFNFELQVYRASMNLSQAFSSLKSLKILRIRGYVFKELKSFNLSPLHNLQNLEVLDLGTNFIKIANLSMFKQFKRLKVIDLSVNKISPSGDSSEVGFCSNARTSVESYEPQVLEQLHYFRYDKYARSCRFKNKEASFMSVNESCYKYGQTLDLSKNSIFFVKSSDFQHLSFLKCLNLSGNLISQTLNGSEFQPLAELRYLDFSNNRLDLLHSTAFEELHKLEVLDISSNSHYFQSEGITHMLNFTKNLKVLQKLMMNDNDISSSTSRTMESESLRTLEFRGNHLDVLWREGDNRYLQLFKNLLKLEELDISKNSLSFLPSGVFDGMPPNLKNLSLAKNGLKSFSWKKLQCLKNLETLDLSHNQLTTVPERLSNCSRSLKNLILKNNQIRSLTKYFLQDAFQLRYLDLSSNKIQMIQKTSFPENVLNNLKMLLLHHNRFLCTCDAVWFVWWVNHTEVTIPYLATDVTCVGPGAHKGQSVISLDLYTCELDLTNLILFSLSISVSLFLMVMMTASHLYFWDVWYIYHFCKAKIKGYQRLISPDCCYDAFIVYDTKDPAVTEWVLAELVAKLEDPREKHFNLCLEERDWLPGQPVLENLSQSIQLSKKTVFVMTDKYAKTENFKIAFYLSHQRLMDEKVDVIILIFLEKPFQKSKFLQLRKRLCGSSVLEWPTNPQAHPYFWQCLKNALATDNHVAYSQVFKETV

For the compound `Cc1cc(-c2[nH]c3ccc(C4CCN(C(C)CF)CC4)cc3c2C(C)C)cc(C)n1` (stereo not drawn) [Example 472, 2-(2,6-dimethylpyridin-4-yl)-5-(1-(1-fluoropropan-2-yl)piperidin-4-yl)-3-isopropyl-1H-indole], the concentration for half-maximal inhibition (IC50) on human TLR9 (setting [1]) was 601 nM; against human TLR7 (setting [2]) it was 7.5 nM; on human TLR8 (setting [3]) it was 13.2 nM.
For `Cc1cc(-c2[nH]c3ccc(C4CCN(C5CCN(C(C)C)CC5)CC4)cc3c2C(C)C)cc(C)n1` [Example 427, 2-(2,6-dimethylpyridin-4-yl)-3-isopropyl-5-(1′-isopropyl-[1,4′-bipiperidin]-4-yl)-1H-indole], the IC50 came out at 173 nM at human TLR9 (setting [1]), 8.3 nM on human TLR7 (setting [2]) and 8.1 nM at human TLR8 (setting [3]).
For `CNCC(=O)N1CCC(c2ccc3[nH]c(-c4cc(C)nc(C5CC5)c4)c(C(C)C)c3c2)CC1` [Example 508, 1-(4-(2-(2-cyclopropyl-6-methylpyridin-4-yl)-3-isopropyl-1H-indol-5-yl)piperidin-1-yl)-2-(methylamino)ethan-1-one], the results for the IC50 at human TLR9 (setting [1]), against human TLR7 (setting [2]) and at human TLR8 (setting [3]) were 592 nM, 8.8 nM and 57.9 nM, respectively.
With `Cc1cc(-c2[nH]c3ccc(C4CCNCC4)cc3c2C(C)C)cc(F)n1` [Example 3, 2-(2-fluoro-6-methylpyridin-4-yl)-3-isopropyl-5-(piperidin-4-yl)-1H-indole], the IC50 at human TLR9 (setting [1]) turned out to be 1890 nM; on human TLR7 (setting [2]) it was 1.8 nM; on human TLR8 (setting [3]) it was 3.8 nM.
In the same order, the values of `COc1cc(-c2[nH]c3ccc(C4CCN(C5CCN(CC(C)C)CC5)CC4)cc3c2C)ccn1` [Example 781, 5-(1′-isobutyl-[1,4′-bipiperidin]-4-yl)-2-(2-methoxypyridin-4-yl)-3-methyl-1H-indole] are 206 nM, 577 nM and 316 nM.
In the same order, the values of `Cc1ccc(S(=O)(=O)N2CCC(c3ccc4[nH]c(-c5ccnc(C)c5)c(C(C)C)c4c3)CC2)cc1` [Example 554] are > 50000 nM, 441 nM and 1070 nM.
In the same order, the values of `C=C(c1c(-c2cc(C)nc(C)c2)[nH]c2ccc(C3CCNCC3)cc12)C(F)(F)F` [Example 91, 2-(2,6-dimethylpyridin-4-yl)-5-(piperidin-4-yl)-3-(3,3,3-trifluoroprop-1-en-2-yl)-1H-indole] are 92 nM, 3.2 nM and 15.3 nM.
Turning to `Cc1cc(-c2[nH]c3ccc(C4CCN(C(=O)CNCCC(C)C)CC4)cc3c2C(C)C)cc(C)n1` [Example 393, 1-(4-(2-(2,6-dimethylpyridin-4-yl)-3-isopropyl-1H-indol-5-yl)piperidin-1-yl)-2-(isopentylamino)ethan-1-one], the IC50 worked out at 800 nM against human TLR9 (TLR9 IC50, HEK-Blue cells overexpressing human TLR9, ODN2006 5 nM); 7.9 nM against human TLR7 (setting [2]); 37.8 nM at human TLR8 (TLR8 IC50, HEK-Blue cells overexpressing human TLR8, R848 15.9 μM).
On to `Cc1cc(-c2[nH]c3ccc(C4CCN(CC5CCCCC5)CC4)cc3c2C(C)C)ccn1` [Example 868, 5-(1-(cyclohexylmethyl)piperidin-4-yl)-3-isopropyl-2-(2-methylpyridin-4-yl)-1H-indole], for which the IC50 was found to be 925 nM at human TLR9 (setting [4]), 53.5 nM against human TLR7 (setting [5]) and 33.8 nM on human TLR8 (setting [6]).
In the case of `Cc1cc(-c2[nH]c3ccc(C4CCN(C)CC4)cc3c2C(C)C)cc(C)n1` [Example 429, 2-(2,6-dimethylpyridin-4-yl)-3-isopropyl-5-(1-methylpiperidin-4-yl)-1H-indole], the results for the IC50 on human TLR9 (setting [1]), at human TLR7 (setting [2]) and at human TLR8 (setting [3]) were 484 nM, 2.2 nM and 5.5 nM, respectively.
In the same order, the values of `Cc1cc(-c2[nH]c3ccc(C4CCN(C5CCOC5)CC4)cc3c2C(C)C)c(C)cn1` (stereo not drawn) [Example 728, 2-(2,5-dimethylpyridin-4-yl)-3-isopropyl-5-(1-(tetrahydrofuran-3-yl)piperidin-4-yl)-1H-indole] are 1340 nM, 6.7 nM and 1.1 nM.
Regarding `Cc1cc(-c2[nH]c3ccc(C4CCN(CC5CCN(C)CC5)CC4)cc3c2C(C)C)ccn1` [Example 743, 3-isopropyl-5-(1-((1-methylpiperidin-4-yl)methyl)piperidin-4-yl)-2-(2-methylpyridin-4-yl)-1H-indole], the IC50 on human TLR9 (setting [1]) is 282 nM; against human TLR7 (setting [2]) it was 6.5 nM; on human TLR8 (setting [3]) it was 5.1 nM.
Consider `CNC(=O)C(=O)N1CCC(c2ccc3[nH]c(-c4cc(C)nc(C)c4)c(C(C)C)c3c2)CC1` [Example 204, 2-(4-(2-(2,6-dimethylpyridin-4-yl)-3-isopropyl-1H-indol-5-yl)piperidin-1-yl)-N-methyl-2-oxoacetamide], for which the IC50 at human TLR9 (setting [1]) stood at 17200 nM; against human TLR7 (setting [2]) it was 5.7 nM; on human TLR8 (setting [3]) it was 62.9 nM.
`Cc1cc(-c2[nH]c3ccc(C4CCN(C(=O)CN(C)C)CC4)cc3c2C(C)C)cc(F)n1` [Example 501, 2-(dimethylamino)-1-(4-(2-(2-fluoro-6-methylpyridin-4-yl)-3-isopropyl-1H-indol-5-yl)piperidin-1-yl)ethan-1-one]: the 50% inhibitory concentration (IC50) at human TLR9 (setting [1]) was 992 nM; against human TLR7 (setting [2]) it was 5.5 nM; at human TLR8 (setting [3]), 30.3 nM.
In the case of `CCc1c(-c2ccnc(C)c2)[nH]c2ccc(C3CCN(C(=O)C4CCNCC4c4ccccc4)CC3)cc12` (stereo not drawn) [Example 627, (4-(3-ethyl-2-(2-methylpyridin-4-yl)-1H-indol-5-yl)piperidin-1-yl)(3-phenylpiperidin-4-yl)methanone], the IC50 on human TLR9 (setting [1]) was 546 nM; at human TLR7 (setting [2]), 531 nM; on human TLR8 (setting [3]) it was 325 nM.
Consider `Cc1cc(-c2[nH]c3ccc(C4CCN(CC(=O)N5CCCC(O)C5)CC4)cc3c2C(C)C)cc(C)n1` (stereo not drawn) [Example 277, 2-(4-(2-(2,6-dimethylpyridin-4-yl)-3-isopropyl-1H-indol-5-yl)piperidin-1-yl)-1-(3-hydroxypiperidin-1-yl)ethan-1-one], for which the figures for the IC50 at human TLR9 (setting [1]), against human TLR7 (setting [2]) and at human TLR8 (setting [3]) were 201 nM, 2 nM and 6.6 nM, respectively.
As to `CCc1c(-c2ccnc(C)c2)[nH]c2ccc(C3CCN(C(=O)NC4CCN(C(=O)C(F)(F)F)CC4)CC3)cc12` [Example 846, 4-(3-ethyl-2-(2-methylpyridin-4-yl)-1H-indol-5-yl)-N-(1-(2,2,2-trifluoroacetyl)piperidin-4-yl)piperidine-1-carboxamide], the figures for the IC50 at human TLR9 (setting [4]), against human TLR7 (setting [5]) and on human TLR8 (setting [6]) were > 50000 nM, 1590 nM and 1540 nM, respectively.
On to `Cc1cc(-c2[nH]c3ccc(C4CCN(CC(=O)N(C)C)CC4)cc3c2CC(F)F)cc(C)n1` [Example 531, 2-(4-(3-(2,2-difluoroethyl)-2-(2,6-dimethylpyridin-4-yl)-1H-indol-5-yl)piperidin-1-yl)-N,N-dimethylacetamide], for which the 50% inhibitory concentration (IC50) on human TLR9 (setting [1]) was 221 nM; at human TLR7 (setting [2]), 15.7 nM; at human TLR8 (setting [3]), 63.9 nM.
For `Cc1cc(-c2[nH]c3cc(F)c(C4CCN(CC(=O)N(C)C)CC4)cc3c2C(C)C)c(F)cn1` [Example 836, 2-(4-(6-fluoro-2-(5-fluoro-2-methylpyridin-4-yl)-3-isopropyl-1H-indol-5-yl)piperidin-1-yl)-N,N-dimethylacetamide], the IC50 on human TLR9 (setting [4]) turned out to be 4730 nM; against human TLR7 (setting [5]), 3.9 nM; at human TLR8 (setting [6]), 11.8 nM.
Take `CCc1c(-c2cc(C)nc(C)c2)[nH]c2ccc(C3CCN(C(=O)C4CC(=O)N(C)C4)CC3)cc12` (stereo not drawn) [Example 530, 4-(4-(2-(2,6-dimethylpyridin-4-yl)-3-ethyl-1H-indol-5-yl)piperidine-1-carbonyl)-1-methylpyrrolidin-2-one]: the IC50 is 5270 nM at human TLR9 (setting [1]), 52.2 nM against human TLR7 (setting [2]) and 398 nM on human TLR8 (setting [3]).
The like results for `CCC(CC)NC(=O)CN1CCC(c2ccc3[nH]c(-c4cc(C)nc(C)c4)c(C(C)C)c3c2)CC1` [Example 220, 2-(4-(2-(2,6-dimethylpyridin-4-yl)-3-isopropyl-1H-indol-5-yl)piperidin-1-yl)-N-(pentan-3-yl)acetamide] were, in that order, 1300 nM, 13.9 nM and 36 nM.
On to `CCc1c(-c2ccnc(C)c2C)[nH]c2ccc(C3CCNCC3)cc12` [Example 70, 2-(2,3-dimethylpyridin-4-yl)-3-ethyl-5-(piperidin-4-yl)-1H-indole], for which the half-maximal inhibitory concentration (IC50) at human TLR9 (setting [1]) is 1110 nM; at human TLR7 (setting [2]), 120 nM; on human TLR8 (setting [3]) it was 47.2 nM.
The like results for `Cc1cc(-c2[nH]c3ccc(C4CCN(CC(=O)N5CCC(C)CC5)CC4)cc3c2C(C)C)cc(C)n1` [Example 269, 2-(4-(2-(2,6-dimethylpyridin-4-yl)-3-isopropyl-1H-indol-5-yl)piperidin-1-yl)-1-(4-methylpiperidin-1-yl)ethan-1-one] were, in that order, 227 nM, 3.7 nM and 19.8 nM.
The like results for `Cc1cc(-c2[nH]c3ccc(C4CCNCC4)cc3c2C(C)C)c(CO)cn1` [Example 42, (4-(3-isopropyl-5-(piperidin-4-yl)-1H-indol-2-yl)-6-methylpyridin-3-yl)methanol] were, in that order, 897 nM, 52.7 nM and 2.5 nM.
In the case of `Cc1cc(-c2[nH]c3ccc(C4CCN(C(=O)c5ccc6n(c5=O)CCC6)CC4)cc3c2C(C)C)cc(C)n1` [Example 144, 6-(4-(2-(2,6-dimethylpyridin-4-yl)-3-isopropyl-1H-indol-5-yl)piperidine-1-carbonyl)-2,3-dihydroindolizin-5(1H)-one], the results for the IC50 on human TLR9 (setting [1]), against human TLR7 (setting [2]) and at human TLR8 (setting [3]) were > 50000 nM, 20 nM and 170 nM, respectively.
`Cc1cc(-c2[nH]c3ccc(C4CCN(CC(C)(C)O)CC4)cc3c2C(C)C)c(C)cn1` [Example 851, 1-(4-(2-(2,5-dimethylpyridin-4-yl)-3-isopropyl-1H-indol-5-yl)piperidin-1-yl)-2-methylpropan-2-ol]: the values for the IC50 at human TLR9 (setting [4]), on human TLR7 (setting [5]) and at human TLR8 (setting [6]) were 1690 nM, 10.4 nM and 0.7 nM, respectively.

The IC50 is the midpoint of a concentration-inhibition curve.
